Data as given in patent US9206124B2, “Treatment of drug-resistant cancer with 2-aryl-2-(3-indolyl) acetohydroxamates” (New Mexico Technical Research Foundation, priority 2013, dated 2015).

Tests used:
T98G glioblastoma cells = test: MTT antiproliferative assay, T98G; format: cell-based; details: Homo sapiens, 48 h treatment, ± SD, read-out: GI50 in vitro, T98G
Method: (§1) As part of the ongoing efforts aimed at identification of compounds active against cancer cells displaying resistance to proapoptotic agents, the selected 2-aryl-2-(3-indolyl)-acetohydroxamates were evaluated for in vitro growth inhibition against a panel of additional cancer cell lines including those resistant to various proapoptotic stimuli, such as human T98G and U87 glioblastoma and human A549 non-small-cell-lung cancer (NSCLC), as well as an apoptosis-sensitive tumor model, such as human Hs683 anaplastic oligodendroglioma, used as a reference. The data reveal that for the most part these compounds retain the single-digit antiproliferatve GI50 values in this challenging cancer cell panel.
(§2) Human cancer cell lines were obtained from the American Type Culture Collection (ATCC, Manassas, Va., USA), the European Collection of Cell Culture (ECACC, Salisbury, UK) and the Deutsche Sammlung von Mikroorganismen and Zellkulturen (DSMZ, Braunschweig, Germany). Human cervical adenocarcinoma HeLa cells were cultured in DMEM supplemented with 10% fetal bovine serum (FBS). Human mammary carcinoma MCF-7 cells were cultured in RPMI supplemented with 10% FBS. The U87 cells (ATCC HTB-14) were cultured in DMEM culture medium, while the A549 cells (DSMZ ACC107) were cultured in RPMI culture medium supplemented with 10% heat-inactivated FBS. The glioblastoma multiforme Hs683 (ATCC HTB-138) and the T98G (ATCC CRL-1690) cell lines were cultivated in DMEM supplemented with 10% FBS. The Human uterine sarcoma MES-SA and MES-SA/Dx5 cells were cultured in RPMI-1640 medium supplemented with 10% FBS with MES SA/Dx5 maintained in the presence of 500 nM Doxorubicin (Sigma). SKMEL-28 cells (ATCC HTB72) and U373 glioblastoma cells (ECACC 08061901) were cultured in RPMI culture medium supplemented with 10% heat-inactivated FBS. Cell culture media were supplemented with 4 mM glutamine (Lonza code BE17-605E), 100 μg/mL gentamicin (Lonza code 17-5182), and penicillin-streptomycin (200 units/ml and 200 μg/ml) (Lonza code 17-602E). Neurosphere culture GBM 031810 was established using known methods and maintained in Neurobasal medium (Invitrogen Carlsbad, Calif.) with B27 supplement (20 ul/ml; Invitrogen), Glutamax (10 ul/ml; Invitrogen), fibroblast growth factor-2 (20 ng/ml; Peprotech, Rocky Hill, N.J., USA), epidermal growth factor (20 ng/ml; Peprotech), heparin (32 IE/ml; Sigma Aldrich, St. Louis, Mo.), and penicillin-streptomycin (1×, Invitrogen). Growth factors and heparin were renewed twice weekly. All cell lines were cultured in T25 flasks, maintained and grown at 37° C., 95% humidity, 5% CO2.
(§3) Antiproliferative properties of the synthesized compounds were evaluated by the MTT assay. All compounds were dissolved in DMSO at a concentration of either 100 mM or 50 mM prior to cell treatment. The cells were trypsinized and seeded at 4×10^3 cells per well into 96-well plates. The cells were grown for 24 h, treated with compounds at concentrations ranging from 0.001 to 100 μM and incubated for 48 h in 200 μL media. 20 μL of MTT reagent in serum free medium (5 mg/mL) was added to each well and incubated further for 2 h. Media was removed and the resulting formazan crystals were re-solubilized in 200 μL of DMSO. A490 was measured using a Molecular Devices Thermomax plate reader. The experiments were performed in quadruplicate and repeated at least twice for each compound per cell line. Cells treated with 0.1% DMSO were used as a negative control; 1 μM phenyl arsine oxide (PAO) was used as a positive control.

U373 glioblastoma cells = test: Quantitative videomicroscopy, U373; format: cell-based, human; details: 25 μM
Method: (§4) To obtain insight into the effectiveness of 2-aryl-2-(3-indolyl)acetohydroxamates against apoptosis-resistant cancers, computer-assisted phase-contrast microscopy (quantitative videomicroscopy) was employed to observe the phenotypic morphological changes in cancer cells as they are treated with these compounds. […] Based on the phase contrast pictures obtained by means of quantitative videomicroscopy, a global growth ratio (GGR) was calculated, which corresponds to the ratio of the mean number of cells present in a given image captured in the experiment (in this case after 24, 48 and 72 h) to the number of cells present in the first image (at 0 h). The ratio obtained in the 3aafa-treated experiment was then divided by the ratio obtained in the control. […] Thus, the GGR calculations are consistent with the MTT colorimetric data and indicate that it is the cytostatic properties associated with the hydroxamates that are responsible for their antiproliferative effects against apoptosis-resistant cancer cells, at least at relevant concentrations (slightly above the GI50 values).
(§5) Human cancer cell lines were obtained from the American Type Culture Collection (ATCC, Manassas, Va., USA), the European Collection of Cell Culture (ECACC, Salisbury, UK) and the Deutsche Sammlung von Mikroorganismen and Zellkulturen (DSMZ, Braunschweig, Germany). […]

[1] = system: Hs683 anaplastic oligodendroglioma cells; test: MTT antiproliferative assay, Hs683; format: cell-based; details: Homo sapiens, Hs 683, 48 h treatment, ± SD, apoptosis-sensitive reference, read-out: GI50 in vitro, Hs683
Method: as §1, §2, §3

U87 glioma cells = test: Redifferentiation of U87 cells to an astrocytic phenotype; format: cell-based, human; details: GI50 concentration (7 μM, 33-day treatment, FIG. 5C)
Method: Although such redifferentiation processes are known, there are only a few small molecule agents reported to induce these epigenetic transformations.
U87 cells were plated at a density of 5×10^4 cells per well in 24-well plate in DMEM supplemented with 10% FBS. The following day, the cells in each well were re-fed with 1 mL of fresh DMEM/10% FBS, and treated with 3aafa to a final concentration between 15 and 5 μM. Cells were placed into the CO2 incubator and media was not replaced for the duration of the experiment.

[2] = system: MCF-7 breast adenocarcinoma cells; test: MTT antiproliferative assay, MCF-7; format: cell-based; details: Homo sapiens, MCF7, Table 1, 48 h treatment, ± SD, read-out: cell viability GI50, MCF7
Description: (§6) This finding led to an exploration of the SAR analyses by synthesizing the first generation compounds 3 containing diverse substituents at different positions in the 2-aryl-2-(3-indolyl)acetohydroxamate skeleton and testing this series for in vitro growth inhibition using the MTT colorimetric assay against two cell lines, human HeLa cervical and MCF-7 breast adenocarcinomas (Table 1). It emerged from these experiments that the substitution on the benzene ring of the indole moiety (R^2≠H) was not tolerated (e.g., 3abfa and 3acfa), whereas the nitrogen could be derivatized (R^1≠H) with only a small activity drop (e.g., 3bafa vs 3aafa).
as §2, §3

U87 glioblastoma cells = test: MTT antiproliferative assay, U87; format: cell-based, human
Method: as §1, §2, §3

SKMEL-28 melanoma cells = test: Quantitative videomicroscopy, SKMEL-28; format: cell-based, human; details: 25 μM
Method: as §4, §5

[3] = system: HeLa cervical adenocarcinoma cells; test: MTT antiproliferative assay, HeLa; format: cell-based; details: Homo sapiens, Table 1, 48 h treatment, ± SD, read-out: cell viability GI50, HeLa
Description: as §6, §2, §3

[4] = slightly exceeding GI50, FIG. 4
[5] = 72 h observation, treated/control

O=C(NO)C(c1ccccc1)c1c(-c2ccc3ccccc3c2)[nH]c2ccccc12 (centres unmarked) [Compound 3aafa]
GI50 (T98G glioblastoma cells): 36.4 ± 1.9 µM
phenotypic effect, U373 (U373 glioblastoma cells; [4]): inhibits cancer cell proliferation without inducing cell death
global growth ratio (GGR), U373 (U373 glioblastoma cells; [5]): ca. 0.3
GI50 [1]: 8.9 ± 0.4 µM
phenotypic morphological changes of U87 cells (U87 glioma cells): ceased to replicate and appeared to undergo redifferentiation to a non-malignant state resembling an astrocytic phenotype
GI50 [2]: 3.4 ± 0.3 µM
activity against cell populations resistant to proapoptotic agents, U87 (U87 glioblastoma cells; FIG. 3, increasing concentration): potent growth inhibitory properties against most of the cells
GI50 (U87 glioblastoma cells; Homo sapiens, 48 h treatment, MTT, ± SD, read-out: GI50 in vitro, U87): 9.5 ± 0.3 µM
phenotypic effect, SKMEL-28 (SKMEL-28 melanoma cells; [4]): inhibits cancer cell proliferation without inducing cell death
global growth ratio (GGR), SKMEL-28 (SKMEL-28 melanoma cells; [5]): ca. 0.3
GI50 [3]: 3.6 ± 0.5 µM
